{"source": "paper PMC12638379", "about": "“An innovative approach to development of new pyrazolylquinolin-2-one hybrids as dual EGFR and BRAF^V600E inhibitors” (Molecular Diversity, 2025)", "system": "NCI 60 cancer cell lines", "assay": "NCI anticancer screening over a panel of 60 cancer cells, single concentration 10 µM", "assay_type": "cell-based, human", "details": "Homo sapiens, read-out: Growth inhibition (GI %)", "in_short": "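Primary single-dose screen at 10 µM over the NCI panel of 60 human tumour cell lines (leukemia, CNS, lung, colon, kidney, ovary, breast, prostate). The standard NCI Developmental Therapeutics Program protocol was used.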", "note": "Read-outs that look alike come from different tables or passages of the source.", "data": [{"compound": "CC(=O)c1cnn(-c2cc(=O)[nH]c3ccc(Br)cc23)c1C", "note": "[Compound 2e, 4-(4-Acetyl-5-methyl-1H-pyrazol-1-yl)-6-bromoquinolin-2(1H)-one]", "values": [{"measurement": "inhibition at 10 µM", "setting": "786-0, Renal cancer 786-0, 10 μM", "value": "< 5", "unit": "%"}, {"measurement": "inhibition at 10 µM", "setting": "A498, Renal cancer A498, 10 μM", "value": "< 5", "unit": "%"}, {"measurement": "inhibition at 10 µM", "setting": "A549, Non-small cell lung cancer A549/ATCC, 10 μM", "value": "< 5", "unit": "%"}, {"measurement": "inhibition at 10 µM", "setting": "ACHN, Renal cancer ACHN, 10 μM", "value": "< 5", "unit": "%"}, {"measurement": "inhibition at 10 µM", "setting": "BT-549, Breast cancer BT-549, 10 μM", "value": "< 5", "unit": "%"}, {"measurement": "inhibition at 10 µM", "setting": "CAKI-1, Renal cancer CAKI-1, 10 μM", "value": 16.5, "unit": "%"}, {"measurement": "inhibition at 10 µM", "setting": "CCRF-CEM, Leukemia CCRF-CEM, 10 μM", "value": 8.16, "unit": "%"}, {"measurement": "inhibition at 10 µM", "setting": "COLO 205, Colon cancer COLO 205, 10 μM", "value": "< 5", "unit": "%"}, {"measurement": "inhibition at 10 µM", "setting": "DU-145, Prostate cancer DU-145, 10 μM", "value": "< 5", "unit": "%"}, {"measurement": "inhibition at 10 µM", "setting": "EKVX, Non-small cell lung cancer EKVX, 10 μM", "value": 6.46, "unit": "%"}, {"measurement": "inhibition at 10 µM", "setting": "HCC 2998, Colon cancer HCC-2998, 10 μM", "value": "< 5", "unit": "%"}, {"measurement": "inhibition at 10 µM", "setting": "HCT-15, Colon cancer HCT-15, 10 μM", "value": "< 5", "unit": "%"}, {"measurement": "inhibition at 10 µM", "setting": "HCT-116, Colon cancer HCT-116, 10 μM", "value": "< 5", "unit": "%"}, {"measurement": "inhibition at 10 µM", "setting": "HL-60, Leukemia HL-60(TB), 10 μM", "value": 12.8, "unit": "%"}, {"measurement": "inhibition at 10 µM", "setting": "HOP-62, Non-small cell lung cancer HOP-62, 10 μM", "value": 13.6, "unit": "%"}, {"measurement": "inhibition at 10 µM", "setting": "HOP-92, Non-small cell lung cancer HOP-92, 10 μM", "value": 20.4, "unit": "%"}, {"measurement": "inhibition at 10 µM", "setting": "HT-29, Colon cancer HT29, 10 μM", "value": 7.95, "unit": "%"}, {"measurement": "inhibition at 10 µM", "setting": "Hs-578T, Breast cancer HS 578T, 10 μM", "value": 6.91, "unit": "%"}, {"measurement": "inhibition at 10 µM", "setting": "IGROV-1, Ovarian cancer IGROV1, 10 μM", "value": "< 5", "unit": "%"}, {"measurement": "inhibition at 10 µM", "setting": "K562, Leukemia K-562, 10 μM", "value": "< 5", "unit": "%"}, {"measurement": "inhibition at 10 µM", "setting": "KM12, Colon cancer KM12, 10 μM", "value": "< 5", "unit": "%"}, {"measurement": "inhibition at 10 µM", "setting": "LOX IMVI, Melanoma LOX IMVI, 10 μM", "value": 9.22, "unit": "%"}, {"measurement": "inhibition at 10 µM", "setting": "Leukemia SR, 10 μM", "value": "< 5", "unit": "%"}, {"measurement": "inhibition at 10 µM", "setting": "MCF7, Breast cancer MCF7, 10 μM", "value": "< 5", "unit": "%"}, {"measurement": "inhibition at 10 µM", "setting": "MDA-MB-231, Breast Cancer MDA-MB 231/ATCC, 10 μM", "value": "< 5", "unit": "%"}, {"measurement": "inhibition at 10 µM", "setting": "MDA-MB-435, Melanoma MDA-MB-435, 10 μM", "value": "< 5", "unit": "%"}, {"measurement": "inhibition at 10 µM", "setting": "MDA-MB-468, Breast cancer MDA-MB-468, 10 μM", "value": "< 5", "unit": "%"}, {"measurement": "inhibition at 10 µM", "setting": "MOLT-4, Leukemia MOLT-4, 10 μM", "value": "< 5", "unit": "%"}, {"measurement": "inhibition at 10 µM", "setting": "Malme-3M, Melanoma MALME-3M, 10 μM", "value": 14, "unit": "%"}, {"measurement": "inhibition at 10 µM", "setting": "Melanoma M14, 10 μM", "value": "< 5", "unit": "%"}, {"measurement": "inhibition at 10 µM", "setting": "NCI-H23, Non-small cell lung cancer NCI-H23, 10 μM", "value": "< 5", "unit": "%"}, {"measurement": "inhibition at 10 µM", "setting": "NCI-H226, Non-small cell lung cancer NCI-H226, 10 μM", "value": 10.7, "unit": "%"}, {"measurement": "inhibition at 10 µM", "setting": "NCI-H322M, Non-small cell lung cancer NCI-H322M, 10 μM", "value": "< 5", "unit": "%"}, {"measurement": "inhibition at 10 µM", "setting": "NCI-H460, Non-small cell lung cancer NCI-H460, 10 μM", "value": "< 5", "unit": "%"}, {"measurement": "inhibition at 10 µM", "setting": "NCI-H522, Non-small cell lung cancer NCI-H522, 10 μM", "value": 7.32, "unit": "%"}, {"measurement": "inhibition at 10 µM", "setting": "NCI/ADR-RES, Ovarian cancer NCI/ADR-RES, 10 μM", "value": "< 5", "unit": "%"}, {"measurement": "inhibition at 10 µM", "setting": "OVCAR-3, Ovarian cancer OVCAR-3, 10 μM", "value": "< 5", "unit": "%"}, {"measurement": "inhibition at 10 µM", "setting": "OVCAR-4, Ovarian cancer OVCAR-4, 10 μM", "value": "< 5", "unit": "%"}, {"measurement": "inhibition at 10 µM", "setting": "OVCAR-5, Ovarian cancer OVCAR-5, 10 μM", "value": "< 5", "unit": "%"}, {"measurement": "inhibition at 10 µM", "setting": "OVCAR-8, Ovarian cancer OVCAR-8, 10 μM", "value": "< 5", "unit": "%"}, {"measurement": "inhibition at 10 µM", "setting": "Prostate cancer PC-3, 10 μM", "value": 13.3, "unit": "%"}, {"measurement": "inhibition at 10 µM", "setting": "RPMI-8226, Leukemia RPMI-8226, 10 μM", "value": 9.34, "unit": "%"}, {"measurement": "inhibition at 10 µM", "setting": "RXF 393, Renal cancer RXF 393, 10 μM", "value": "< 5", "unit": "%"}, {"measurement": "inhibition at 10 µM", "setting": "SF-268, CNS Cancer SF-268, 10 μM", "value": "< 5", "unit": "%"}, {"measurement": "inhibition at 10 µM", "setting": "SF-295, CNS Cancer SF-295, 10 μM", "value": 6.55, "unit": "%"}, {"measurement": "inhibition at 10 µM", "setting": "SF-539, CNS Cancer SF-539, 10 μM", "value": 7.46, "unit": "%"}, {"measurement": "inhibition at 10 µM", "setting": "SK-MEL-2, Melanoma SK-MEL-2, 10 μM", "value": "< 5", "unit": "%"}, {"measurement": "inhibition at 10 µM", "setting": "SK-MEL-5, Melanoma SK-MEL-5, 10 μM", "value": "< 5", "unit": "%"}, {"measurement": "inhibition at 10 µM", "setting": "SK-MEL-28, Melanoma SK-MEL-28, 10 μM", "value": "< 5", "unit": "%"}, {"measurement": "inhibition at 10 µM", "setting": "SK-OV-3, Ovarian cancer SK-OV-3, 10 μM", "value": "< 5", "unit": "%"}, {"measurement": "inhibition at 10 µM", "setting": "SN12C, Renal cancer SN12C, 10 μM", "value": 6.46, "unit": "%"}, {"measurement": "inhibition at 10 µM", "setting": "SNB-19, CNS Cancer SNB-19, 10 μM", "value": 5.52, "unit": "%"}, {"measurement": "inhibition at 10 µM", "setting": "SNB-75, CNS Cancer SNB-75, 10 μM", "value": 15.6, "unit": "%"}, {"measurement": "inhibition at 10 µM", "setting": "SW-620, Colon cancer SW-620, 10 μM", "value": "< 5", "unit": "%"}, {"measurement": "inhibition at 10 µM", "setting": "T47D, Breast cancer T-47D, 10 μM", "value": 12.2, "unit": "%"}, {"measurement": "inhibition at 10 µM", "setting": "TK-10, Renal cancer TK-10, 10 μM", "value": "< 5", "unit": "%"}, {"measurement": "inhibition at 10 µM", "setting": "U-251, CNS Cancer U251, 10 μM", "value": "< 5", "unit": "%"}, {"measurement": "inhibition at 10 µM", "setting": "UACC-62, Melanoma UACC-62, 10 μM", "value": "< 5", "unit": "%"}, {"measurement": "inhibition at 10 µM", "setting": "UACC-257, Melanoma UACC-257, 10 μM", "value": "< 5", "unit": "%"}, {"measurement": "inhibition at 10 µM", "setting": "UO-31, Renal cancer UO-31, 10 μM", "value": 37.4, "unit": "%"}]}]}
